Here are results for one compound from paper PMC11873939, “Target Identification with Live-Cell Photoaffinity Labeling and Mechanism of Action Elucidation of ARN23765, a Highly Potent CFTR Corrector” (Journal of Medicinal Chemistry, 2025).

One assay addresses T1, F508del/R1070W-CFTR (Homo sapiens, UniProt P13569, DEL508-508/R1070W).
T1 construct: CFTR identification in pull-down studies and analysis of full-length CFTR in protein maturation assays; expressed in transfected cells; host or cells: HEK293 (transient)
In words: Protein maturation assay (WB, band C/(C+B)) in transfected HEK293 cells. The assay is classed as cell-based. To be noted: HEK293, 24 h; ARN23765 10 nM, VX-661 3 μM. On the procedure: HEK293 cells were plated in 24-wells at around 80% of confluence and transfected with constructs coding for F508del-CFTR or mutants using JetPEI reagent (101000053, Polyplus Technology) following the manufacturer’s instructions. After 24 h, the correctors were added for a further 24 h. […] For binding site analysis experiments, the cells were kept either at 37 °C (Figure S8) or moved to 30 °C (Figure 9) during incubation with the selected correctors. VX-445 and corrector 3151 were mixed together as a control for maximal protein correction. DMSO (0.2%) was added to nontreated controls. After treatment, cells were lysed in RIPA buffer [50 mM tris-HCl pH 8, 150 mM NaCl, 1% NP40, 0.5% sodium deoxycolate, 0.1% SDS, 2.0 mM EDTA] and lysates were analyzed with WB, as described in the supplementary methods of the Supporting Information.

For a further assay, the target named is T2, wt-CFTR (Homo sapiens, UniProt P13569).
T2 construct: expressed in transfected cells
Kind of assay: Live-cell photoaffinity labeling, streptavidin pull-down and CFTR Western blot. To be noted: wt-CFTR CFBE41o- cells, 25-fold excess (25 μM) competitor 30 min before probe (1 μM). The assay is classed as binding. On the procedure:
Wt-CFTR or F508del-CFTR CFBE41o- cells were plated at 2–2.5 × 10^6 cells/plate in 6 cm diameter dishes. The day after, sodium butyrate (5–2.5 mM) was added for 24 h; next, the medium was exchanged with fresh one supplemented with DMSO (0.25%) (276855, Sigma-Aldrich) or probe (1 μM). For competition experiments, a 25-fold excess of ARN23765 (25 μM) was added 30 min before probe’s addition. For the analysis of “corrected” F508del-CFTR, F508del-CFTR CFBE41o- cells were kept at 27 °C for 24 h before adding the probes. Probes were incubated with cells for 2 h, then the medium was removed, and plates were washed twice with phosphate buffer saline (PBS). Cells were placed on ice and irradiated for 5 min at a wavelength of 365 nm using a 100-W UV-lamp (95–0127–02 model B100-AP, Analytik Jena). Cells were harvested with trypsin (T4299, Sigma-Aldrich), washed with PBS (D8537, Sigma-Aldrich), and pellets were stored at −80 °C until used, centrifuged at 300 × g and washed twice with PBS (D8537, Sigma-Aldrich). Pellets from in-cell photoaffinity labeling with alkyne-probes (PAP_1 and PAP_2) were lysed in PBS plus protease inhibitor cocktail (78429, Thermo Scientific) by sonication. The suspension was centrifuged at 800 × g for 20 min at 4 °C to discard nuclei and cell debris. The total extracted proteins were quantified with the bicinchoninic acid (BCA) protein assay (23225, Thermo Scientific) and subjected to CuAAC before proceeding with pull-down. Pellets from in-cell photoaffinity labeling with desthio-biotinylated (DS-biot) probes (PAP_1 DS-biot, PAP_2 DS-biot, PAP_N1 DS-biot, PAP_N2 DS-biot) were lysed with a modified RIPA buffer [50 mM tris-HCl pH 8, 150 mM NaCl, 0.5% Triton-X100, 0.2% SDS, 1 mM ethylenediaminetetraacetic acid (EDTA)] supplemented with protease inhibitor cocktail and centrifuged at 10.000× g for 10 min. The protein content in the supernatant was quantified by BCA protein assay. Protein lysate (200 μg) was diluted to 800 μL and the Triton-X100 percentage was reduced to 0.2% before proceeding to pull-down.
Copper-catalyzed azide–alkyne cycloaddition (CuAAC) was performed according to a previously described protocol.[62] Briefly, to the protein preparation (250 μL at 1 mg/mL protein concentration) the following reagents were added at the indicated final concentrations: 100 μM 5/6-TAMRA-azide-desthiobiotin (CLK-1110–5, Jena Bioscience), 1.0 mM tris-(2-carbossietil)phosphine (TCEP, C4706, Sigma-Aldrich), 100 μM tris-[(1-benzyl-1H-1,2,3-triazol-4-yl)methyl]amine (TBTA, 678937, Sigma-Aldrich), 1.0 mM CuSO4.5H2O (Sigma), and 0.8% sodium dodecyl sulfate (SDS). TBTA was first dissolved in DMSO at 83.5 mM and then diluted with four volumes of tert-butanol. The reaction was mixed by vortexing and incubated for 1 h at 25 °C. After the reaction time, proteins were precipitated with 5 volumes of cold acetone overnight at −20 °C. Samples were centrifuged for 20 min at 20.000× g, and the pellets were washed with methanol, air-dried, and finally resuspended with 600 μL of 1% SDS. SDS concentration was then diluted to 0.2% with PBS before proceeding to pull-down.
High capacity streptavidin agarose (20359, Thermo Scientific) (25 μL) was added to PAP-labeled cell extracts for 1 h at room temperature under gentle rotation. The streptavidin beads were collected by centrifugation and washed four times with lysis buffer. Resin-bound proteins were eluted with 45 μL of 5 mM biotin (B4501, Sigma-Aldrich) for 30 min at room temperature and analyzed with Western blot for CFTR expression. Input samples (4 and 8 μg for wt-CFTR and F508del-CFTR CFBE41o-, respectively) were collected immediately before incubation with streptavidin resin. Input and pulled-down samples were analyzed with WB as described in the supplementary methods.
A general note: Immunoblotting shows a protein as a band on a membrane.

The target of a further assay is T3, R170G-CFTR (Homo sapiens, UniProt P13569, R170G).
T3 construct: CFTR identification in pull-down studies and analysis of full-length CFTR in protein maturation assays; expressed in transfected cells; host or cells: HEK293 (transient)
In words: Protein maturation assay (WB, band C/(C+B)) in transfected HEK293 cells. To be noted: HEK293, 24 h, 10 nM. The assay is classed as cell-based. On the procedure: HEK293 cells were plated in 24-wells at around 80% of confluence and transfected with constructs coding for F508del-CFTR or mutants using JetPEI reagent (101000053, Polyplus Technology) following the manufacturer’s instructions. After 24 h, the correctors were added for a further 24 h. Correctors were used at the following concentrations: ARN23765 (10 nM), VX-445 (3 μM), and 3151 (10 μM). For binding site analysis experiments, the cells were kept either at 37 °C (Figure S8) or moved to 30 °C (Figure 9) during incubation with the selected correctors. VX-445 and corrector 3151 were mixed together as a control for maximal protein correction. DMSO (0.2%) was added to nontreated controls. After treatment, cells were lysed in RIPA buffer [50 mM tris-HCl pH 8, 150 mM NaCl, 1% NP40, 0.5% sodium deoxycolate, 0.1% SDS, 2.0 mM EDTA] and lysates were analyzed with WB, as described in the supplementary methods of the Supporting Information.

SMILES strings stand for the structures.

T3 sequence (P13569 whole entry R170G): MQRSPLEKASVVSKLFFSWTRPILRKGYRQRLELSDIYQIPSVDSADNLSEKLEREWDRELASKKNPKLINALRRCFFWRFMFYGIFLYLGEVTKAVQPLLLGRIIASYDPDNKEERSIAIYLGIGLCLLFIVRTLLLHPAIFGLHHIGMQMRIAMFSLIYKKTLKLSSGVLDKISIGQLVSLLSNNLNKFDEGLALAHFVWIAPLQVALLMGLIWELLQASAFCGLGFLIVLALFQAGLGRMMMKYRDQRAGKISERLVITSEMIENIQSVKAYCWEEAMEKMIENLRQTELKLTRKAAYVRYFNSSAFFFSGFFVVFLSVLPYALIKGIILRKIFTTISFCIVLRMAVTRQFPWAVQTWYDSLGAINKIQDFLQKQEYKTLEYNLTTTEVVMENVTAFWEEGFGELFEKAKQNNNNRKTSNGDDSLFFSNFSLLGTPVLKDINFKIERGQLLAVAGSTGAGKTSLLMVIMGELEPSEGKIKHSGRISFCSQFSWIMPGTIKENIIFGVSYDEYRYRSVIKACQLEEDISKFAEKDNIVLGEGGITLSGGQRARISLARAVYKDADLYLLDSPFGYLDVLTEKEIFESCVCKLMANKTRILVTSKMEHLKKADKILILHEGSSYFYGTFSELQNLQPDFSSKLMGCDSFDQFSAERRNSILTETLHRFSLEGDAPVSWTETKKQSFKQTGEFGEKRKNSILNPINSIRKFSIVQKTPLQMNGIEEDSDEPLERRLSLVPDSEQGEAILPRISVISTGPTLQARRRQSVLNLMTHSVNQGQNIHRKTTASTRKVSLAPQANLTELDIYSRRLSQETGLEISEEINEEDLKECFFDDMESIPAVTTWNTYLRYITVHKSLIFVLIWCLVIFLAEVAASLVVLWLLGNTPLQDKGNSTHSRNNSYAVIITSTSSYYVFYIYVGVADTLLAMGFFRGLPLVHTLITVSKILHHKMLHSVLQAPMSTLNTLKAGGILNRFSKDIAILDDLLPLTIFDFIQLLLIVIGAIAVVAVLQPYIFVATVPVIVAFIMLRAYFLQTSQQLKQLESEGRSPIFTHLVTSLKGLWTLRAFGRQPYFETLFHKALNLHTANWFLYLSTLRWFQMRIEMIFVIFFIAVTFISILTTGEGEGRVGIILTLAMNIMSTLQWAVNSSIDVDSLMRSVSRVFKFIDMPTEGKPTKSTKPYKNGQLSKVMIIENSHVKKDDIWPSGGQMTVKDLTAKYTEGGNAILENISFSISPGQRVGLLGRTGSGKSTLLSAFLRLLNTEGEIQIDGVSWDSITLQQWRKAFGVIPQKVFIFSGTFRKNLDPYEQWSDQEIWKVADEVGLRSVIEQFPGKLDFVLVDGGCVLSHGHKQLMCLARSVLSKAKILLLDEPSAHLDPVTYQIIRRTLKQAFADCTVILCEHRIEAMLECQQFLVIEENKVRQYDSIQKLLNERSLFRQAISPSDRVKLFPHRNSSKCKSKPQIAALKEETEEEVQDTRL
T1 sequence (P13569 with tags, fused parts or gaps DEL508-508/R1070W): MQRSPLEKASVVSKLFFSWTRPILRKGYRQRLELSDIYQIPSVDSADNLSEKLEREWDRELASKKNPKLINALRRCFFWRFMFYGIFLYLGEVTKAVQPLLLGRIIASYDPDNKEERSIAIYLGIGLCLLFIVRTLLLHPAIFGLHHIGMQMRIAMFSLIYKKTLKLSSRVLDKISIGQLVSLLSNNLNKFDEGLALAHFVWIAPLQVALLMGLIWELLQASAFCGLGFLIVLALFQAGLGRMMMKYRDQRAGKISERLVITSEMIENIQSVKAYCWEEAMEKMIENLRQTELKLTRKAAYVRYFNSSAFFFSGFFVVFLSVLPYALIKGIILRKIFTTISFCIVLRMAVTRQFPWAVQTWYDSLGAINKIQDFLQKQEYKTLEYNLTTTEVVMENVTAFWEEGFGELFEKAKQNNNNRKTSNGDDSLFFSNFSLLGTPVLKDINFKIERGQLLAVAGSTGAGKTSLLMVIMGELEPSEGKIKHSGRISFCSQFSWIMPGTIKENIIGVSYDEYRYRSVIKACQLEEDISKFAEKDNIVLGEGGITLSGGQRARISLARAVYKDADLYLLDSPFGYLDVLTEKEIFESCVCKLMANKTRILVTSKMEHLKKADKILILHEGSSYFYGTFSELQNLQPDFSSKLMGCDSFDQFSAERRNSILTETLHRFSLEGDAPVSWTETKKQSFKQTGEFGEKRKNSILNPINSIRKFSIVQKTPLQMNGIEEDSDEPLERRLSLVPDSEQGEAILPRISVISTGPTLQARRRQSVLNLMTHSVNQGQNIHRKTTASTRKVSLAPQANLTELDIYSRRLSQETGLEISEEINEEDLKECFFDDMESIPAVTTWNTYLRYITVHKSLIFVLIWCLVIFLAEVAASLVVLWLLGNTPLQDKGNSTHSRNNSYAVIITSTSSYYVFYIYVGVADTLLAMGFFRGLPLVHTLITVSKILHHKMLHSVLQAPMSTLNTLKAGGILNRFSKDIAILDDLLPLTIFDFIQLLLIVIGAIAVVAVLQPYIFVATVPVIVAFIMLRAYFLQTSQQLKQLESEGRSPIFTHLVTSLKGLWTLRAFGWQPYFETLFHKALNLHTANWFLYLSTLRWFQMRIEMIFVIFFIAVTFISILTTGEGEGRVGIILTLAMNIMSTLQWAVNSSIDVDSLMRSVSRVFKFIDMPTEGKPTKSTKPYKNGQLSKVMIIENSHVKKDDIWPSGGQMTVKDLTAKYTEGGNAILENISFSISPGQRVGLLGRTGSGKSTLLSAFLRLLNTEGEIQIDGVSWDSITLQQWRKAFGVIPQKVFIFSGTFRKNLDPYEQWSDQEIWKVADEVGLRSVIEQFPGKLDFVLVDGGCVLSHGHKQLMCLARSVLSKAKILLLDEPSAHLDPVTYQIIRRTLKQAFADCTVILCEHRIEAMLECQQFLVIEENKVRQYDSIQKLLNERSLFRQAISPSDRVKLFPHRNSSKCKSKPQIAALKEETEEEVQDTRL
T2 sequence (P13569 whole entry): as the sequence (P13569 whole entry R170G) above, with G170R counted along it

Turning to `CN(C(=O)c1cccc(-n2nc(C(F)(F)F)c3c2[C@@H](Oc2ccc(C(=O)O)cc2)CCC3)c1)c1ccc2c(c1)OC(F)(F)O2` [ARN23765], the F508del/R1070W protein maturation result on F508del/R1070W-CFTR is listed as “further enhanced”. For the same compound, the “Competition: CFTR recovered in pull-down by PAP_1 DS-biot or PAP_2 DS-biot after preincubation with competitor” value at wt-CFTR is listed as “markedly reduced amount of the recovered protein”. Also, at R170G-CFTR, the R170G-CFTR maturation entry is “improving”.
